For orientation: half-life means how long it takes for the measured level to halve. A higher half-life goes with slow decline. Usually microsomal CLint stands for the capacity of the preparation to metabolise the compound, expressed as a volume cleared per time. For orientation: pKi means the negative decadic logarithm of the Ki, by convention in mol/L. The low end stands for a large Ki, the high end for a small Ki. A word on the efflux ratio: it is the permeability from basolateral to apical divided by that in the opposite direction, in the common usage.

Data on six compounds can be found in paper PMC4357247, “Novel agonists for serotonin 5-HT7 receptors reverse metabotropic glutamate receptor-mediated long-term depression in the hippocampus of wild-type and Fmr1 KO mice, a model of Fragile X Syndrome” (Frontiers in Behavioral Neuroscience, 2015).

A short description of data set [1]: Metabolic stability in mouse hepatic microsomes with NADPH-generating system. In kind it is in vitro ADME. The settings on record: pH 7.4; for half-life at 1 μM: mouse liver microsomes 0.5 mg/mL, 1 μM compound, 37°C; for microsomal CLint at 1 μM: calculated from in vitro half-life, mouse liver microsomes. On the procedure: Metabolic reactions were initiated by the addition of a NADPH regenerating system (NADP, glucose-6-phosphate, glucose-6-phosphate dehydrogenase, final glucose-6-phosphate dehydrogenase concentration, 1 unit/mL). Aliquots were removed (0, 5, 10, 30, and 60 min) and immediately mixed with an equal volume of cold acetonitrile containing internal standard. Test compound incubated with microsomes without NADPH regenerating system for 60 min was included. […] The column used was a Phenomenex Gemini C-18 (250 × 4.6 mm, 5 μm particle size). The samples were isocratically eluted using CH3CN/ammonium formate (20 mM, pH 5.5) 7:3 (v/v) as mobile phase. […] Liver microsomes provide the most convenient way to study cytochrome P450 enzyme-mediated metabolism.

Data set [2] relates to mGluR-LTD in CA1 pyramidal neurons of hippocampal slices (native 5-HT7 receptors). Nature of the data set: Patch clamp: reversal of DHPG-induced mGluR-LTD of EPSCs in CA1 pyramidal neurons, hippocampal slices from wild-type mice. In kind it is cell-based. To be noted: 5 min, measured 45 min after DHPG; for EPSC amplitude: compound 10 nM. On the procedure:
(§1) Patch clamp experiments were performed on mouse hippocampal slices from wild-type (wt) mice (FVB and C57BL/6J background) and Fmr1 KO2 mice (C57BL/6J background, kindly provided by Prof. Willemsen, Erasmus MC, Rotterdam, The Netherlands). […] Every care was taken to maximally reduce the number of animals and to minimize discomfort.
(§2) Acute hippocampal slices ([…]) were cut with a vibratome (Leica VT 1200). Slices were continually perfused with oxygenated ACSF. After 3 h of recovery, one slice was placed in the recording chamber of a patch camp set up and viewed with infrared microscopy (Leica DMLFS). A tungsten electrode was placed in the stratum radiatum to stimulate Schaffer collaterals with negative current pulses (duration 0.3 ms, delivered every 15 s by A310 Accupulser, WPI, USA). Evoked AMPA receptor-mediated excitatory post-synaptic currents (EPSCs) were recorded from CA1 pyramidal neurons under whole-cell patch clamp (holding potential -70 mV; EPC7-plus amplifier HEKA, Germany). Stimulation intensity was set to induce half-maximal EPSC amplitude. Series resistance (Rs) was monitored throughout the recording by means of 10 mV hyperpolarizing pulses; recordings were discarded from analysis if Rs changed by more than 20%. EPSC traces were filtered at 3 kHz and digitized at 10 kHz. Data were acquired and analyzed using Signal software (CED, England). The recording micropipette (resistance 1.5–3 MΩ) was filled with intracellular solution (in mM: K-gluconate 140; HEPES 10; NaCl 10; MgCl2 2; EGTA 0.2; Mg-ATP 3.5; Na-GTP 1; pH 7.3).
(§3) Cumulative histograms indicate % EPSC amplitude (mean ± SEM from groups of neurons) after application of DHPG alone (control LTD) or DHPG followed by a 5-HT7 receptor agonist. EPSC amplitude values from two groups of neurons were compared using the Student's t-test, with n indicating the number of neurons tested in each condition.

Data set [3] has the same test system. Nature of the data set: Patch clamp: reversal of DHPG-induced mGluR-LTD of EPSCs in CA1 pyramidal neurons, hippocampal slices from Fmr1 KO mice. In kind it is cell-based. To be noted: Fmr1 KO (C57BL6J) slices, 5 min; for EPSC amplitude: compound 10 nM, applied after DHPG (100 μM, 5 min). On the procedure: as §1, §2, §3
In general terms: In patch-clamp work, channel activity is measured electrically.

Data set [4] has as its target T1, 5-HT1A receptors (Homo sapiens, UniProt P08908).
T1 sequence (P08908 1-422): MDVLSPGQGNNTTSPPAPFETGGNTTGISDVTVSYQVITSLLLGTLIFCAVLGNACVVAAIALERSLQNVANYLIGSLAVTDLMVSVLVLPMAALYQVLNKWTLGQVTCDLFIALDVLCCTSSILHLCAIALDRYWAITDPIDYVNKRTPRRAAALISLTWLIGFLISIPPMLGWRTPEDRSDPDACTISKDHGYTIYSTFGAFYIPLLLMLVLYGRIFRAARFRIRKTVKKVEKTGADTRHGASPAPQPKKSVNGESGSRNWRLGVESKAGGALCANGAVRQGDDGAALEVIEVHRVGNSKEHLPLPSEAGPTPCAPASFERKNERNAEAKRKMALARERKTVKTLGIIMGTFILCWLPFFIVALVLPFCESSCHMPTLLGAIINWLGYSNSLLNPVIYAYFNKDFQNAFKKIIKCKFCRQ
Nature of the data set: Binding affinity for 5-HT1A receptors. The source says:
Table 1 Binding Affinity Data and Pharmacokinetic Parameters of Test Compounds. | column: 5-HT1AKi [nM]

Details of data set [5]: method as in Leopoldo et al., 2008. To be noted: mice, intraperitoneal injection; ref Leopoldo et al., 2008; cited from earlier work.
Data set [6] addresses 5-HT7 receptors (Homo sapiens, UniProt P34969). The experiment in a line: Radioligand binding affinity for 5-HT7 receptors.
Data set [7] concerns the target T2, P-glycoprotein (P-gp) (Homo sapiens, UniProt P08183).
T2 construct: fluxes in Caco-2 cells monolayer; endogenous in cells; host or cells: Caco-2 cells
The experiment in a line: Efflux ratio (BA/AB) in Caco-2 cells monolayer. The settings on record: efflux ratio basal-to-apical / apical-to-basal, Caco-2 monolayer, cutoff 3 for P-gp substrate. In kind it is in vitro ADME. An excerpt:
This system is an in vitro model to evaluate the interaction of small molecules with P-glycoprotein (P-gp), an efflux pump localized on the blood-brain barrier that prevents xenobiotics to enter the brain. Therefore, a centrally acting drug should not be a P-gp substrate.
A general note: Caco-2 monolayers are a common model of the intestinal barrier.

Setting [8] is: wt FVB slices, applied after DHPG (100 μM, 5 min).

pKi: −log10 of the molar value. Values joined by “and” are separate entries in the source; they are usually repeats but may differ in a detail not shown here. Equal entries are not always repeated.

T2 sequence (P08183 whole entry): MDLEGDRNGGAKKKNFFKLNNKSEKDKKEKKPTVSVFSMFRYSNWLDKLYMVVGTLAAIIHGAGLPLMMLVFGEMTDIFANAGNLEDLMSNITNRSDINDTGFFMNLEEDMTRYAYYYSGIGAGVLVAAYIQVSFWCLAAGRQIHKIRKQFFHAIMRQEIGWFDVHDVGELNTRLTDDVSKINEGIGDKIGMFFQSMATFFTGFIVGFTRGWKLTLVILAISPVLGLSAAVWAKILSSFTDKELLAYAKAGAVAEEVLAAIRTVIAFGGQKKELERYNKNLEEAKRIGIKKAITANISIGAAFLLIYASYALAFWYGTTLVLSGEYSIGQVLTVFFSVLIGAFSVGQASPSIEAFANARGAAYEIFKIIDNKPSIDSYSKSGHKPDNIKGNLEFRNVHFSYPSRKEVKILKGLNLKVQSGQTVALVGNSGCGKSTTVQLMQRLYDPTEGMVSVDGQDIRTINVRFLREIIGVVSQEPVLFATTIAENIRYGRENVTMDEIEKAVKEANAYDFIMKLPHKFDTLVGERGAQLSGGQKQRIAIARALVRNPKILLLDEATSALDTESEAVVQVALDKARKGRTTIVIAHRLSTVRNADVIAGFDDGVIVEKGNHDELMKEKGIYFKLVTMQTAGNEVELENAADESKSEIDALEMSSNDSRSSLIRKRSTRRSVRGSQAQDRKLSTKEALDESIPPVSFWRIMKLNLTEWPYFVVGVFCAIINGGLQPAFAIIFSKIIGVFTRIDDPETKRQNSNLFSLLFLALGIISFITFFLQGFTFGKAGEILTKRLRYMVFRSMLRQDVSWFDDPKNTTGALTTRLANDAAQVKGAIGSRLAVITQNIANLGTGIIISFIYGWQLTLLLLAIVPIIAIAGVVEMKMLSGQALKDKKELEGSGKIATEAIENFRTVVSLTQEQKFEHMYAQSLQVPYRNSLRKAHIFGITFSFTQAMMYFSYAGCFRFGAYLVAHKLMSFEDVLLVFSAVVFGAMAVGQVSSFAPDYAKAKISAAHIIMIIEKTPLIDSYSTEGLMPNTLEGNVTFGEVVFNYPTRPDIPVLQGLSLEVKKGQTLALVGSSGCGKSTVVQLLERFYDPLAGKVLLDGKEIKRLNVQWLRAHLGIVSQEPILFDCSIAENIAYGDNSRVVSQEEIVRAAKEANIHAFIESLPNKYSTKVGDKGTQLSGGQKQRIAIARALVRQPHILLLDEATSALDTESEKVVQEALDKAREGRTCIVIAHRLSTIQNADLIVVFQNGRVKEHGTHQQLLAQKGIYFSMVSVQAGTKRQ
5-HT7 receptors, sequence (P34969 whole entry): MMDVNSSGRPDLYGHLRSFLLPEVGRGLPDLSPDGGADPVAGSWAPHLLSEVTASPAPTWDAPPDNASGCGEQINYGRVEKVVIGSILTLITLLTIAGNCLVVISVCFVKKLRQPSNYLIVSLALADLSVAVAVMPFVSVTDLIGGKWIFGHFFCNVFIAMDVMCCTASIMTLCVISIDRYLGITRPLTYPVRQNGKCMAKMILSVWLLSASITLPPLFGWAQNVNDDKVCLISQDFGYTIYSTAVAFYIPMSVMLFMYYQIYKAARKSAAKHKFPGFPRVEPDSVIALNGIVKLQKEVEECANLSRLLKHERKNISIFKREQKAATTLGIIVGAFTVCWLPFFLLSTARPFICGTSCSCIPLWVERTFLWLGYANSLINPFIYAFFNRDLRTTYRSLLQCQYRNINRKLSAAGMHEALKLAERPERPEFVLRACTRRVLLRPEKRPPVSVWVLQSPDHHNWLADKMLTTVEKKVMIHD

For the compound `COc1ccc(-c2ccccc2N2CCN(C[C@@H](O)COc3cnccn3)CC2)cc1` [BA-10, (R)-1-[4-[2-(4-methoxyphenyl)phenyl]piperazin-1-yl]-3-(2-pyrazinyloxy)-2-propanol], in data set [1], the half-life at 1 μM is 14.8 min and the microsomal CLint at 1 μM is 96 µL/min/mg.
`N[C@H](C(=O)O)c1cc(O)cc(O)c1` [DHPG, S-3,5-DHPG]: the “EPSC amplitude after DHPG alone (mGluR-LTD)” value in data set [2] (wt C57BL/6J slices, DHPG 100 μM) is 74.4 ± 9.8 % of control; in data set [3] (DHPG 100 μM, measured 45 min after DHPG), 56 ± 5 % of control and 56 ± 12 % of control.
For `N#Cc1ccc(CNC(=O)CCCCCN2CCN(c3ccccc3-c3ccccc3)CC2)cc1` [LP-211, N-(4-cyanophenylmethyl)-4-(2-diphenyl)-1-piperazinehexanamide, reference compound], the pKi in data set [4] is 6.73. The same compound displayed a half-life at 1 μM in data set [1] of 10.6 min. For the same compound, the microsomal CLint at 1 μM in data set [1] is 131 µL/min/mg. For the same compound, the EPSC amplitude was 99.4 ± 1.5 % of control in data set [2] (wt C57BL/6J slices, applied 5 min after DHPG (100 μM, 5 min)); 78 ± 5 % of control in data set [3] (45 min after DHPG); 97 ± 3 % of control in data set [3] (55 min after DHPG). The in vivo half-life in data set [5] is on record as 65 min.
Take `COc1ccc(-c2ccccc2N2CCN(CCCCCC(=O)NCc3ccc(F)nc3)CC2)cc1` [PF-62, N-(2-fluoropyridin-5-ylmethyl)-4-[2-(4-methoxy)phenyl]-1-piperazinehexanamide]: the figures for the pKi in data set [6] and in data set [4] were 8.42 and 6.82, respectively. Moreover, the half-life at 1 μM in data set [1] is 6.7 min. Besides, the microsomal CLint at 1 μM in data set [1] is 205 µL/min/mg. For the same compound, the efflux ratio in data set [7] stood at 4.2.
With `COc1ccc(-c2ccccc2N2CCNCC2)cc1` [PM-20, 1-[2-(4-methoxyphenyl)phenyl]piperazine], in data set [2] (setting [8]), the EPSC amplitude is 60 ± 7 % of control.
As to `c1ccc(-c2ccccc2N2CCNCC2)cc1` [RA-7, 1-(2-biphenyl)piperazine], the EPSC amplitude in data set [2] (setting [8]) was 64 ± 7 % of control.
